Data published in PubChem BioAssay (NCI).
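48-hour exposure; five concentrations; linearly interpolated endpoints. GI50 marks 50% less growth. TGI is the concentration that stops growth completely.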

Tests used:
Assay in all cases: DTP human tumour cell line panel, 48 h
DU-145 prostate = tested on: DU-145 prostate
NCI-H23 lung = tested on: NCI-H23 lung
OVCAR-8 ovarian = tested on: OVCAR-8 ovarian
NCI/ADR-RES ovarian = tested on: NCI/ADR-RES ovarian
SK-MEL-28 melanoma = tested on: SK-MEL-28 melanoma
OVCAR-4 ovarian = tested on: OVCAR-4 ovarian
UO-31 renal = tested on: UO-31 renal
SF-295 CNS = tested on: SF-295 CNS
UACC-257 melanoma = tested on: UACC-257 melanoma
SF-539 CNS = tested on: SF-539 CNS
MOLT-4 leukemia = tested on: MOLT-4 leukemia
RPMI-8226 leukemia = tested on: RPMI-8226 leukemia
MCF7 breast = tested on: MCF7 breast
NCI-H460 lung = tested on: NCI-H460 lung
M14 melanoma = tested on: M14 melanoma
NCI-H522 lung = tested on: NCI-H522 lung
NCI-H226 lung = tested on: NCI-H226 lung
LOX IMVI melanoma = tested on: LOX IMVI melanoma
T-47D breast = tested on: T-47D breast
MDA-MB-231 breast = tested on: MDA-MB-231 breast
OVCAR-5 ovarian = tested on: OVCAR-5 ovarian
HL-60(TB) leukemia = tested on: HL-60(TB) leukemia
SF-268 CNS = tested on: SF-268 CNS
UACC-62 melanoma = tested on: UACC-62 melanoma
SK-OV-3 ovarian = tested on: SK-OV-3 ovarian
MDA-MB-435 = tested on: MDA-MB-435
ACHN renal = tested on: ACHN renal
SN12C renal = tested on: SN12C renal
A549 NSCLC = tested on: A549 NSCLC

Compound: C/C(=C\c1c[nH]c2ccccc12)[N+](=O)[O-]
- TGI (DU-145 prostate): 15.5 µM
- GI50 (NCI-H23 lung): 10.2 µM
- TGI (NCI-H23 lung): 22.6 µM
- GI50 (OVCAR-8 ovarian): 4.18 µM
- TGI (OVCAR-8 ovarian): 17.9 µM
- GI50 (NCI/ADR-RES ovarian): 6.23 µM
- TGI (NCI/ADR-RES ovarian): 19.7 µM
- GI50 (SK-MEL-28 melanoma): 1.84 µM
- TGI (SK-MEL-28 melanoma): 5.47 µM
- GI50 (OVCAR-4 ovarian): 7.58 µM
- TGI (OVCAR-4 ovarian): 21 µM
- GI50 (UO-31 renal): 4.85 µM
- TGI (UO-31 renal): 17.7 µM
- GI50 (SF-295 CNS): 7.97 µM
- TGI (SF-295 CNS): 22.7 µM
- GI50 (UACC-257 melanoma): 4.89 µM
- TGI (UACC-257 melanoma): 17.1 µM
- GI50 (SF-539 CNS): 3.7 µM
- TGI (SF-539 CNS): 15.2 µM
- GI50 (MOLT-4 leukemia): 2.19 µM
- TGI (MOLT-4 leukemia): 5.83 µM
- GI50 (RPMI-8226 leukemia): 1.81 µM
- TGI (RPMI-8226 leukemia): 4.17 µM
- GI50 (MCF7 breast): 2.67 µM
- TGI (MCF7 breast): 28 µM
- GI50 (NCI-H460 lung): 4.18 µM
- TGI (NCI-H460 lung): 17.4 µM
- GI50 (M14 melanoma): 2.57 µM
- TGI (M14 melanoma): 5.65 µM
- GI50 (NCI-H522 lung): 3.19 µM
- TGI (NCI-H522 lung): 11.6 µM
- GI50 (NCI-H226 lung): 13.3 µM
- TGI (NCI-H226 lung): 30.6 µM
- GI50 (LOX IMVI melanoma): 1.89 µM
- TGI (LOX IMVI melanoma): 4.86 µM
- GI50 (T-47D breast): 4.27 µM
- TGI (T-47D breast): 22.2 µM
- GI50 (MDA-MB-231 breast): 11.4 µM
- TGI (MDA-MB-231 breast): 24.5 µM
- GI50 (OVCAR-5 ovarian): 19.3 µM
- TGI (OVCAR-5 ovarian): 34 µM
- GI50 (HL-60(TB) leukemia): 2.3 µM
- TGI (HL-60(TB) leukemia): 6.46 µM
- GI50 (SF-268 CNS): 4.16 µM
- TGI (SF-268 CNS): 19.2 µM
- GI50 (UACC-62 melanoma): 4.04 µM
- TGI (UACC-62 melanoma): 15.9 µM
- GI50 (SK-OV-3 ovarian): 11.4 µM
- TGI (SK-OV-3 ovarian): 23.7 µM
- GI50 (MDA-MB-435): 5.56 µM
- TGI (MDA-MB-435): 20.1 µM
- GI50 (ACHN renal): 4.36 µM
- TGI (ACHN renal): 16.6 µM
- GI50 (SN12C renal): 3.53 µM
- TGI (SN12C renal): 14.4 µM
- GI50 (A549 NSCLC): 5.85 µM
- TGI (A549 NSCLC): 21.4 µM
